In brackets after ≈: the same amount, converted by molar mass. Where two headings read alike, the source gives them in different places. Where a SMILES comes first, the peptide text is derived from it. Where no end group is shown, it is not given here.
Experiments:
S. enteritidis ATCC1891 = conditions: ATCC1891, 18 h
E. coli CR-3 = conditions: CR-3, 18 h
E. coli CE-273 = conditions: CE-273, 18 h
B. subtilis IFO13722 = conditions: IFO13722, 18 h
E. coli JCM1649 = conditions: JCM1649, 18 h
erythrocytes = conditions: for Hemolytic property (relative value): red cells of human
B. sereus IFO3457 = conditions: 18 h
S. aureus JCM2413 = conditions: JCM2413, 18 h
S. aureus IFO13276 = conditions: IFO13276, 18 h
S. enteritidis ATC14028 = conditions: ATC14028, 18 h

Molecule	MIC (S. enteritidis ATCC1891)	MIC (E. coli CR-3)	MIC (E. coli CE-273)	MIC (B. subtilis IFO13722)	MIC (E. coli JCM1649)	Hemolytic property, in words (erythrocytes)	Hemolytic property (relative value) (erythrocytes; 1 μM)	Hemolytic property (relative value) (erythrocytes; 5 μM)	Hemolytic property (relative value) (erythrocytes; 10 μM)	Hemolytic property (relative value) (erythrocytes; 100 μM)	MIC (B. sereus IFO3457)	MIC (S. aureus JCM2413)	MIC (S. aureus IFO13276)	MIC (S. enteritidis ATC14028)
INWKGIAAMAKKLL [mastoparanX, INWKGIAAMAKKLL, reference compound]	3.1 µM	3.1 µM	3.1 µM	3.1 µM	3.1 µM	high level of hemolytic property	5.4%	18.8%	86%	93%	3.1 µM	12.5 µM	1.56 µM	6.3 µM
RVGINWKGIAAMAKKII [RVG-mastX, RVG INWKGIAAMAKKII]	100 µM	50 µM	50 µM	50 µM	>200 µM	–	–	–	–	–	>200 µM	200 µM	>200 µM	200 µM
GWALR [Ribo-2, GWALR]	800 µM	800 µM	>800 µM	>800 µM	>800 µM	–	–	–	–	–	>800 µM	800 µM	>800 µM	800 µM
CC(C)C[C@H](NC(=O)[C@H](C)N)C(=O)N[C@@H](CCCNC(=N)N)C(=O)O [ALR] (H-Ala-Leu-Arg-OH)	>200 µM	>200 µM	>200 µM	>200 µM	>200 µM	–	–	–	–	–	>200 µM	>200 µM	>200 µM	>200 µM
CC(C)[C@H](NC(=O)[C@@H](N)CCCCN)C(=O)NCC(=O)O [KVG] (H-Lys-Val-Gly-OH)	>800 µM	800 µM (≈ 242 µg/mL)	800 µM (≈ 242 µg/mL)	>800 µM	>800 µM	–	–	–	–	–	>800 µM	800 µM (≈ 242 µg/mL)	>800 µM	800 µM (≈ 242 µg/mL)
CC(C)[C@H](NC(=O)[C@@H](N)CCCNC(=N)N)C(=O)NCC(=O)O [RVG] (H-Arg-Val-Gly-OH)	>800 µM	800 µM (≈ 264 µg/mL)	800 µM (≈ 264 µg/mL)	>800 µM	>800 µM	–	–	–	–	–	>800 µM	800 µM (≈ 264 µg/mL)	>800 µM	800 µM (≈ 264 µg/mL)
KNRKGIAGMAKKLLGNKWKLM [mastWR]	12.5 µM	25 µM	12.5 µM	50 µM	50 µM	–	–	–	–	–	50 µM	50 µM	50 µM	25 µM
CC(C)C[C@H](NC(=O)[C@@H](NC(=O)[C@@H](N)CCCCN)C(C)C)C(=O)O [KVL] (H-Lys-Val-Leu-OH)	>800 µM	800 µM (≈ 287 µg/mL)	800 µM (≈ 287 µg/mL)	800 µM (≈ 287 µg/mL)	>800 µM	–	–	–	–	–	800 µM (≈ 287 µg/mL)	400 µM (≈ 143 µg/mL)	800 µM (≈ 287 µg/mL)	800 µM (≈ 287 µg/mL)

Source: patent publication US20040072992A1, “Novel peptide capable of specifically acting on biological membrane” (priority 2002, published 2004)
